We go through ten compounds from patent US5278152A, “2-formylbenzylphosphonic acid derivatives useful for the treatment of diseases caused by viruses” (priority 1989, dated 1994).

For one data set, the system named is influenza A2. The class given is in vivo, NMRI mice. The following applies: twice daily over 2.5 days; for Number of surviving animals: groups of 5 mice.
Another data set concerns Herpes simplex Type 1. The data set can be described thus: Herpes simplex Type 1 infection of NMRI mice, survival. The class given is in vivo. The following applies: twice daily over 2.5 days; for Surviving animals: groups of 5 mice. The method, then: Pathogen-free NMRI mice having a weight of about 15 g were infected intraperitoneally with Herpes simplex Type 1 and then treated intraperitoneally, orally or subcutaneously with the compounds mentioned in Table 1. The treatment was carried out twice daily over the course of 2.5 days, starting after infection. The result of treatment was determined on the basis of the course of the disease and the survival rate compared to the untreated infection controls. The controls received a water-solublemethylhydroxyethylcellulose (viscosity […], administered in 2% strength solution) instead of the compounds to be tested. The experiments were carried out using groups of 5 mice each per preparation.
The chemotherapeutic action of the compound A can be seen from Table 1.

Another data set is described as follows: in vitro. The following applies: hela and vero cells.
The test system of data set [1] is myxoviruses (influenza A2). As to the kind of experiment: microbe, parasite or virus in culture. The class given is cell-based, influenza A2 virus in Hela and Vero cells. The following applies: read-out: MIC (minimum inhibitory concentration).
For the next data set, the system named is viruses. The following applies: literature; cited from earlier work.
The conditions of data set [2]: literature; cited from earlier work.

Several values for one entry are separate records, joined by “and”; a condition that tells them apart may be missing. Equal values may be shown once. Where a name gives a salt, the structure may show the parent alone. Read-outs that look alike come from different tables or passages of the source. Where only a bound is given, the exact number is not on record here.

As for `CCOP(=O)(Cc1ccccc1C1O[C@H](c2ccccc2)[C@H](C)N1C)OCC` (single isomer, unassigned) [F, Diethyl 2-(3,4-dimethyl-5-phenyloxazolidin-2-yl)benzylphosphonate], the Average survival time was determined as 6.5 days in the data set with influenza A2 (po, 0.25 mg/kg); 6.5 days in the data set with influenza A2 (po, 2.5 mg/kg); 7.0 days with influenza A2 (po, 25 mg/kg). Also, the “Number of surviving animals” value in the data set with influenza A2 (po, 0.25 mg/kg) came out at 3; with influenza A2 (po, 2.5 mg/kg), 3; in the data set with influenza A2 (po, 25 mg/kg), 2.

Consider `CCOP(=O)(Cc1ccccc1C=O)OCC` [A, diethyl 2-formylbenzylphosphonate], for which the Average survival time in the data set on influenza A2 (po, 2.5 mg/kg) was determined as 9.0 days; in the data set with influenza A2 (po, 3 mg/kg) it was 8.0 days; with influenza A2 (po, 10 mg/kg), 7.0 days; in the data set on influenza A2 (po, 25 mg/kg) it was 6.3 days; in the data set on influenza A2 (po, 30 mg/kg), 7.3 days; in the data set on influenza A2 (sc, 2.5 mg/kg), 6.7 days. Besides, the Average survival time is recorded as 7.0 days in the data set on influenza A2 (sc, 25 mg/kg); 8.0 days in the data set on Herpes simplex Type 1 (ip, 3 mg/kg); 9.0 days with Herpes simplex Type 1 (ip, 10 mg/kg); 8.5 days with Herpes simplex Type 1 (ip, 30 mg/kg); 8.0 days in the data set on Herpes simplex Type 1 (po, 2.5 mg/kg); 8.0 days with Herpes simplex Type 1 (po, 250 mg/kg). Moreover, the Average survival time with Herpes simplex Type 1 (sc, 2.5 mg/kg) is 9.0 days; in the data set with Herpes simplex Type 1 (sc, 25 mg/kg), 7.2 days; with Herpes simplex Type 1 (sc, 250 mg/kg) it was 8.4 days. Also, the “Number of surviving animals” value with influenza A2 (po, 2.5 mg/kg) was determined as 4; in the data set with influenza A2 (po, 3 mg/kg), 4; in the data set with influenza A2 (po, 10 mg/kg) it was 4; with influenza A2 (po, 25 mg/kg), 2; with influenza A2 (po, 30 mg/kg), 2; in the data set on influenza A2 (sc, 2.5 mg/kg) it was 2. Also, in the data set on influenza A2 (sc, 25 mg/kg), the “Number of surviving animals” value is on record as 3. Further, the Surviving animals is on record as 0 in the data set with Herpes simplex Type 1 (ip, 3 mg/kg); 4 with Herpes simplex Type 1 (ip, 10 mg/kg); 3 in the data set with Herpes simplex Type 1 (ip, 30 mg/kg); 4 in the data set on Herpes simplex Type 1 (po, 2.5 mg/kg); 5 in the data set on Herpes simplex Type 1 (po, 25 mg/kg); 4 in the data set on Herpes simplex Type 1 (po, 250 mg/kg). The Surviving animals with Herpes simplex Type 1 (sc, 2.5 mg/kg) came out at 2; in the data set on Herpes simplex Type 1 (sc, 25 mg/kg) it was 0; with Herpes simplex Type 1 (sc, 250 mg/kg) it was 0.

Turning to `NC12CC3CC(CC(C3)C1)C2` [Amantadine, reference compound], the Average survival time in the data set with influenza A2 (po, 80 mg/kg) is recorded as 8.0 days. Also, the “Number of surviving animals” value in the data set with influenza A2 (po, 80 mg/kg, 80 mg/kg) is 5 and 4; with influenza A2 (sc, 80 mg/kg), 5.

On to `O=Cc1ccccc1CP(=O)(O)O` [B, 2-formylbenzylphosphonic acid di(triethylammonium) salt], for which the MNTC in “in vitro” is over 400 µg/mL. Moreover, the Average survival time in the data set with influenza A2 (po, 1.5 mg/kg) was 8.5 days; with influenza A2 (po, 150 mg/kg) it was 7.0 days; in the data set with influenza A2 (sc, 1.5 mg/kg) it was 8.5 days; in the data set with influenza A2 (sc, 15 mg/kg), 8.0 days; with Herpes simplex Type 1 (po, 3 mg/kg), 7.0 days; with Herpes simplex Type 1 (po, 10 mg/kg), 8.3 days. Also, the Average survival time with Herpes simplex Type 1 (po, 30 mg/kg) amounted to 6.0 days; in the data set with Herpes simplex Type 1 (sc, 3 mg/kg) it was 7.8 days; in the data set on Herpes simplex Type 1 (sc, 10 mg/kg), 7.0 days; in the data set on Herpes simplex Type 1 (sc, 30 mg/kg), 6.5 days. The “Number of surviving animals” value was 3 in the data set with influenza A2 (po, 1.5 mg/kg); 5 with influenza A2 (po, 15 mg/kg); 3 with influenza A2 (po, 150 mg/kg); 1 in the data set with influenza A2 (sc, 1.5 mg/kg); 4 in the data set on influenza A2 (sc, 15 mg/kg). Moreover, the Surviving animals in the data set with Herpes simplex Type 1 (po, 3 mg/kg) worked out at 3; in the data set with Herpes simplex Type 1 (po, 10 mg/kg), 2; in the data set on Herpes simplex Type 1 (po, 30 mg/kg) it was 3; in the data set on Herpes simplex Type 1 (sc, 3 mg/kg), 2; in the data set on Herpes simplex Type 1 (sc, 10 mg/kg), 3; in the data set with Herpes simplex Type 1 (sc, 30 mg/kg), 3. Further, in data set [1], the MIC was 4.94 µg/mL.

For the compound `CCOP(=O)(O)Cc1ccccc1C=O` [C, monoethyl 2-formylbenzylphosphonate triethylammonium salt], the MNTC in the data set “in vitro” is over 400 µg/mL. Besides, the “Number of surviving animals” value with influenza A2 (po, 0.25 mg/kg) is 5; in the data set with influenza A2 (po, 2.5 mg/kg), 2; in the data set on influenza A2 (po, 25 mg/kg), 5; in the data set on influenza A2 (sc, 0.25 mg/kg), 5; in the data set on influenza A2 (sc, 2.5 mg/kg), 5; in the data set with influenza A2 (sc, 25 mg/kg), 3. The Average survival time in the data set with influenza A2 (po, 2.5 mg/kg) is listed as 6.0 days; in the data set on influenza A2 (sc, 25 mg/kg), 7.5 days; in the data set on Herpes simplex Type 1 (po, 3 mg/kg), 9.0 days; in the data set on Herpes simplex Type 1 (po, 10 mg/kg), 8.0 days; with Herpes simplex Type 1 (po, 30 mg/kg), 8.3 days; in the data set with Herpes simplex Type 1 (sc, 3 mg/kg), 8.5 days. Further, the Average survival time with Herpes simplex Type 1 (sc, 10 mg/kg) was found to be 8.0 days; in the data set with Herpes simplex Type 1 (sc, 30 mg/kg), 10.0 days. Moreover, the Surviving animals with Herpes simplex Type 1 (po, 3 mg/kg) was 4; with Herpes simplex Type 1 (po, 10 mg/kg), 3; in the data set on Herpes simplex Type 1 (po, 30 mg/kg), 1; in the data set with Herpes simplex Type 1 (sc, 3 mg/kg) it was 1; in the data set with Herpes simplex Type 1 (sc, 10 mg/kg), 3; with Herpes simplex Type 1 (sc, 30 mg/kg), 4. Moreover, in data set [1], the MIC is 44.4 µg/mL.

With `CCOP(=O)(Cc1ccccc1C=NNC(N)=S)OCC` [D, Diethyl 2-formylbenzylphosphonate thiosemicarbazone], the Average survival time in the data set with influenza A2 (po, 0.25 mg/kg) is listed as 8.0 days; with influenza A2 (po, 2.5 mg/kg), 7.0 days; with influenza A2 (po, 25 mg/kg), 7.3 days. Further, the “Number of surviving animals” value stood at 4 in the data set on influenza A2 (po, 0.25 mg/kg); 1 in the data set on influenza A2 (po, 2.5 mg/kg); 2 in the data set with influenza A2 (po, 25 mg/kg).

As for `CCOP(=O)(Cc1ccccc1C=NNC(=O)c1cccnc1)OCC` [E, Diethyl 2-formylbenzylphosphonate nicotinic acid hydrazone], the Average survival time in the data set with influenza A2 (po, 0.25 mg/kg) came to 8.0 days; in the data set on influenza A2 (po, 2.5 mg/kg) it was 6.7 days; with influenza A2 (po, 25 mg/kg), 6.0 days. Besides, the “Number of surviving animals” value turned out to be 4 with influenza A2 (po, 0.25 mg/kg); 3 in the data set with influenza A2 (po, 2.5 mg/kg); 3 in the data set on influenza A2 (po, 25 mg/kg).

Turning to `O=P(O)(O)CP(=O)(O)O` [MDP, methylenediphosphonic acid], the antiviral activity entry with viruses is reported as “exhibit antiviral activity”.

With `O=C(O)CP(=O)(O)O` [PAA, phosphonoacetic acid], the antiviral activity entry in the data set on viruses is on record as “exhibit antiviral activity”.

Take `O=C(O)P(=O)(O)O` [PFA, phosphonoformic acid]: the toxic side effects result in data set [2] is recorded as “some toxic side effects”. The antiviral activity result in the data set on viruses is listed as “wide antiviral spectrum”.
